According to patent EP0311383B1, “Monoclonal antibody to methamphetamine, preparation of the same, assay method and assay kit of methamphetamine” (UBE INDUSTRIES, LTD., priority 1987, dated 1989):
Where two headings read alike, the source gives them in different places.

How the values were obtained:
Assay type in all cases: binding, mouse
[1] = test system: monoclonal antibody MA-13 (FERM BP-1495); assay: Assay test II: competitive ELISA on immobilised MA-BSA, reactivities of the monoclonal antibody with various compounds
Experimental: (§1) First, in each analytic well of a 96-well U-bottomed ELISA plate was apportioned each 50 µl of an MA-BSA solution (2 µg/ml, dissolved in 0.05 M carbonate buffer of pH 9.8) which is the antigen for analysis prepared in Example 1, and the mixture was left to stand overnight at 4 °C (by such treatment, MA-BSA was adsorbed onto the surface of each analytic well).
(§2) Subsequently, after each analytic well was washed with a washing solution (PBS containing 0.05 % of Tween 20), each apportioned in each analytic well, left to stand at room temperature for 2 hours, these respective analytic wells were washed with the washing solution, and the culture supernatant in each culture well of the above culture plate was apportioned each in 50 µl into these respective analytic wells and left to stand at room temperature for 2 hours (for the negative control, a supernatant obtained by culturing similarly a mixture of mouse spleen lymphocytes and mouse myeloma cells before fusion was employed; on the other hand, for the positive control, the serum of mouse used for cell fusion in the present invention diluted to 100-fold with the washing liquor was used).
(§3) Next, each analytic well in the ELISA plate was washed, and each 50 µl of an alkaline phosphatase labeled antibody solution to mouse immunoglobulin was apportioned into each analytic well and left to stand at room temperature for 1 hour. And, after each analytic well in the ELISA plate was washed, each 100 µl of a sodium p-nitrophenylphosphate 6H₂O solution (1 mg/ml) was apportioned into each analytic well and, after the reaction at room temperature for 30 minutes, absorbance of each well at 405 nm was assayed by means of a spectrophotometer for microplate.
(§4) In order to determine the reaction specificities of the monoclonal antibodies such as MA-7, MA-13 and MA-15, reactivities with compounds different from MA such as AP (amphetamine), EP (ephedrin), ME (methylephedrin), MPA (methoxyphenamine), PT (phentermine), norEp (norephedrin), DBED (N,N′-dibenzylethylenediamine), OH-MA (p-hydroxymethamphetamine), OH-AP (p-hydroxyamphetamine), OH-EP (p-hydr oxyephedrin), OH-norEP (p-hydroxynorephedrin), Mes (mescaline), etc. were investigated according to the same ELISA method as described above in the step (c) (however, the reagent used for assay was made two-fold in amount, and a mixed solution of 50 µl of a solution of a compound diluted at multiple stages with the washing liquor and 50 µl of a monoclonal antibody solution was used in place of the hybridoma culture supernatant).
(§5) The reactivities of these antibodies with MA, AP, EP, ME, MPA, PT, norEp, DBED, OH-MA, OH-AP, OH-EP, OH-norEP and Mes are shown in Table 1 in terms of the reactive ratios relative to MA.

[2] = test system: monoclonal antibody MA-15 (FERM BP-1496); assay: as above
Experimental: as §1, §2, §3, §4, §5

[3] = test system: monoclonal antibody MA-7 (FERM BP-1494); assay: as above
Experimental: as §1, §2, §3, §4, §5

[4] = test system: "enzyme-labeled antibody" (peroxidase-labeled monoclonal antibody MA-15); assay: Reactivity of MA analogous compounds in the competitive enzyme immunoassay with MA bound protein and enzyme-labeled antibody (Example 15)
Experimental: The antibody in the "enzyme-labeled antibody" was obtained as the purified monoclonal antibody as shown in Reference example 2 by use of the MA-15 strain (FERM-P 1496).
First, […] of horseradish peroxidase was dissolved in 1 ml of distilled water and 200 µl of 0.1 M sodium periodate was added, followed by standing at room temperature for 30 minutes. After the enzyme solution was dialyzed at 4 °C overnight against 1 mM acetate buffer (pH 4.5), 100 µl of 0.2 M sodium carbonate buffer (pH 9.5) was added to adjust pH to 9.5. On the other hand, 8 mg of the monoclonal antibody (MA-15) dissolved in PBS was dialyzed at 4 °C overnight against 0.01 M sodium carbonate buffer (pH 9.5). The peroxidase and the monoclonal antibody thus obtained was mixed, left to stand at room temperature for 2 hours and a half, and sodium borohydride was added to the reaction mixture, followed by standing at 4 °C for 2 hours. The peroxidase-labeled monoclonal antibody thus obtained was dialyzed at 4 °C overnight against PBS, and this was diluted to 100-fold with PBS containing 0.01 % sodium ethylmercurithiosalicylate, apportioned each in 0.2 ml into a bottle and stored under lyophilization to provide the "enzyme-labeled antibody" (10 µg/bottle) which is the assay kit of MA. During assay of MA, 0.2 ml of distilled water was added into the bottle to dissolve well the lyophilized powder, and the solution was suitable diluted with PBS before use.
The MA-BSA which is the "MA bound protein" (bound product of MA and BSA, 5 µg/ml) was apportioned each in 100 µl into a 96-well flat-bottomed plate for immunoassay which is the solid phase support (microplate made of polystyrene produced by Nunc Co.), and left to stand under 4 °C overnight to immobilize MA-BSA onto each well. Next, for preventing non-specific adsorption of the "enzyme-labeled antibody" onto the plate, a washing solution containing 10 % calf serum (phosphate buffer of pH 7.4 containing 0.05 % of Tween 20) was placed and left to stand under room temperature for 30 minutes. Next, after washing with the same washing solution, 50 µl of the standard MA solution prepared by using the diluted urine of healthy man (produced by HYLAND DIAGNOSTIC CO.) to 5-fold with the same washing solution [(0 to 150 ng)/50 µl] and 50 µl of the "enzyme-labeled antibody" prepared in Example 1 were added at the same time into each well, followed by mixing and standing under room temperature for 30 minutes. […] Finally, each 50 µl of 2N sulfuric acid was apportioned to stop the enzymatic reaction, and absorbance of the solution after stopping of the reaction at 492 nm was assayed by use of a microplate photometer. […]

[5] = test system: "antibody carrier" (monoclonal antibody to MA on polystyrene latex); assay: Latex agglutination assay with MA carrier and antibody carrier, time until agglutination is seen with naked eyes; conditions: same as at 0 ppm
Experimental: Each solution was quickly stirred with a stirring stick to carry out the reaction while moving the reaction plate, forward and backward, left and right, at a constant temperature (e.g. room temperature) for a certain period of time (e.g. 1 to 2 minutes), and the agglutination of each set formed by the reaction between the "antibody carrier" and the "MA carrier" is observed. At this time, by observing with comparison between the agglutination in the case of the set by use of the "standard MA solution" and the agglutination in the case of the set by use of the sample to be assayed, the MA content in the sample to be assayed can be known.
A mixture of 100 µl of MA-BSA solution (400 µg/ml) with 100 µl of a polystyrene latex which is the carrier (solid components 4.0 % by weight, particle size 0.8 µm, solvent PBS was shaken at 37 °C for 3 hours to have the MA-BSA carried physically on the polystyrene latex surface to obtain the "MA carrier".
The "MA carrier" prepared in Example 18 and the "antibody carrier " prepared in Example 19 were added dropwise each in 25 µl separately from each other onto the three sheets of reaction plates, and on the same plates were further added each 5 µl of the samples to be assayed with MA concentrations of 0.5 ppm and 1.0 ppm prepared by dilution with urine of healthy man (produced by HYLAND DIAGNOSTIC CO.) separately from each other, followed immediately by mixing of the "MA carrier", the "antibody carrier" and the sample to be assayed with a stirring stick.
In Example 20, samples to be assayed were prepared by use of methylephedrine (ME) in place of MA and the assay was carried out, following otherwise the same procedure.
In Example 20, samples to be assayed were prepared by use of ephedrine (EP) in place of MA and the assay was carried out, following otherwise the same procedure.

[6] = monoclonal antibody MA-13, compound diluted at multiple stages, MA = 1
[7] = monoclonal antibody MA-15, compound diluted at multiple stages, MA = 1
[8] = monoclonal antibody MA-7, compound diluted at multiple stages, MA = 1
[9] = concentration in sample 0.5 ppm
[10] = concentration in sample 1.0 ppm
[11] = enzyme-labeled antibody, according to Example 6, MA = 100

Compound | reactive ratios relative to MA [1, 6] | reactive ratios relative to MA [2, 7] | reactive ratios relative to MA [3, 8] | also measured
CC(N)Cc1ccccc1 (centres unmarked) [AP, amphetamine] | – | – | – | reactive ratios relative to MA [1]: 0.0062; reactive ratios relative to MA [2]: 0.019; reactive ratios relative to MA [3]: 0.0051; Reactivity (%) [4]: 1.8%
c1ccc(CNCCNCc2ccccc2)cc1 [DBED, N,N′-dibenzylethylenediamine] | 0.23 | 0.0055 | 0.17 | –
CN[C@@H](C)[C@H](O)c1ccccc1 [EP, ephedrin] | 0.0025 | 0.0012 | 0.0018 | time until particles of polystyrene latex were observed with naked eyes to be agglutinated [5, 9]: ≤ 30 s; time until particles of polystyrene latex were observed with naked eyes to be agglutinated [5, 10]: ≤ 30 s
CN[C@@H](C)Cc1ccccc1 [MA, methamphetamine] | 1 | 1 | 1 | Reactivity (%) [4, 11]: 100%
CC([C@H](O)c1ccccc1)N(C)C (some centres unmarked) [ME, methylephedrin] | 0.028 | 0.016 | 0.022 | Reactivity (%) [4, 11]: 1.2%; time until particles of polystyrene latex were observed with naked eyes to be agglutinated [5, 9]: ≤ 30 s; time until particles of polystyrene latex were observed with naked eyes to be agglutinated [5, 10]: ≤ 30 s
CNC(C)Cc1ccccc1OC (centres unmarked) [MPA, methoxyphenamine] | 0.0037 | 0.0016 | 0.023 | Reactivity (%) [4, 11]: <0.2%
COc1cc(CCN)cc(OC)c1OC [Mes, mescaline] | – | – | – | reactive ratios relative to MA [1]: <0.00001; reactive ratios relative to MA [3]: <0.00001
CC(N)Cc1ccc(O)cc1 (centres unmarked) [OH-AP, p-hydroxyamphetamine] | 0.003 | <0.001 | <0.001 | reactive ratios relative to MA ([2]; monoclonal antibody MA-15, compound diluted at multiple stages, MA = 1, listed as p-hydroxyamphetamine): < 0.001; reactive ratios relative to MA ([3]; monoclonal antibody MA-7, compound diluted at multiple stages, MA = 1, listed as p-hydroxyamphetamine): < 0.001
CNC(C)C(O)c1ccc(O)cc1 (centres unmarked) [OH-EP, p-hydroxyephedrine] | <0.001 | 0.0031 | <0.001 | reactive ratios relative to MA ([1]; monoclonal antibody MA-13, compound diluted at multiple stages, MA = 1, listed as p-hydroxephedrine): < 0.001; reactive ratios relative to MA ([3]; monoclonal antibody MA-7, compound diluted at multiple stages, MA = 1, listed as p-hydroxyephedrine): < 0.001
CNC(C)Cc1ccc(O)cc1 (centres unmarked) [OH-MA, p-hydroxymethamphetamine] | 0.14 | 0.014 | 0.0039 | –
CC(N)C(O)c1ccc(O)cc1 (centres unmarked) [OH-norEP, p-hydroxynorephedrin] | <0.001 | <0.001 | <0.001 | reactive ratios relative to MA ([1]; monoclonal antibody MA-13, compound diluted at multiple stages, MA = 1, listed as p-hydroxynorephedrine): < 0.001; reactive ratios relative to MA ([2]; monoclonal antibody MA-15, compound diluted at multiple stages, MA = 1, listed as p-hydroxynorephedrine): < 0.001; reactive ratios relative to MA ([3]; monoclonal antibody MA-7, compound diluted at multiple stages, MA = 1, listed as p-hydroxynorephedrine): < 0.001
CC(C)(N)Cc1ccccc1 [PT, phentermine] | 0.12 | 0.0039 | 0.042 | –
CC(N)C(O)c1ccccc1 (centres unmarked) [norEP, norephedrin] | <0.001 | <0.001 | <0.001 | reactive ratios relative to MA ([1]; monoclonal antibody MA-13, compound diluted at multiple stages, MA = 1, listed as norephedrine): < 0.001; reactive ratios relative to MA ([2]; monoclonal antibody MA-15, compound diluted at multiple stages, MA = 1, listed as norephedrine): < 0.001; reactive ratios relative to MA ([3]; monoclonal antibody MA-7, compound diluted at multiple stages, MA = 1, listed as norephedrine): < 0.001
